This test has as its system fibrosis-encapsulated tumoroid (FET). As to the kind of experiment: Anticancer drug resistance test of fibrosis-encapsulated tumoroid (cell viability measurement). In kind it is cell-based, human. As to conditions: cisplatin, 100 µM; fibrosis-encapsulated tumoroid (FET) compared to the simple tumoroid (tumor only); FIG. 10B. On the procedure: The present inventors performed a drug resistance test in order to evaluate whether it was possible to select drugs, which can be effective in the clinical stage, using the fibrosis-encapsulated tumoroid which is a solid cancer tissue analogue produced by the methods of Examples 1 to 4 (see FIGS. 10A and 10B). […] The drug test was conducted through cell viability measurement. The cell viability of each of the group containing the anticancer drug and the control group not containing the anticancer drug was measured after replacing the medium with maintenance medium. […] The cell viability of the solid cancer tissue analogue was measured using Promega’s CellTiter-Glo luminescent cell viability assay as another measurement method, and the death of cancer cells by the anticancer drug could be indirectly confirmed by comparison with the control group. […] The fibrosis-encapsulated tumoroid produced as described above mimicked a series of processes in which the anticancer agent passes sequentially through the blood vessel wall and fibrotic tissue and reaches cancer tissue, in the same way as in the human body. Thus, it is preferable to finally produce the eFET and conduct an anticancer drug test using the eFET, but only the FET may be selectively used in order to reduce cost or time. […]

The values that follow come from patent publication US20230071222A1, “METHOD FOR PREPARING FIBROSIS-ENCAPSULATED TUMOROID, AND USE THEREOF” (INDUSTRY-ACADEMIC COOPERATION FOUNDATION, YONSEI UNIVERSITY, priority 2020, published 2023).

As for `N.N.[Cl][Pt][Cl]` [cisplatin], the “resistance to the anticancer drug (cell viability)” value is “statistically significant resistance”.
